Assay results: ChEMBL document CHEMBL3400015, “Tertiary amides of Salinomycin: A new group of antibacterial agents against Bacillus anthracis and methicillin-resistant Staphylococcus epidermidis” (Bioorg Med Chem Lett, 2015)
Converted amounts (≈) assume the structure as drawn.

What was measured:
Format in all cases: functional
[1] = test system: Staphylococcus epidermidis; test: Bactericidal activity against methicillin-resistant Staphylococcus epidermidis isolate 458/11 after 24 hrs; details: isolate 458/11, 24 h, read-out: MBC99.9
[2] = test system: Staphylococcus epidermidis; test: Bactericidal activity against methicillin-resistant Staphylococcus epidermidis isolate 404/10 after 24 hrs; details: isolate 404/10, 24 h, read-out: MBC99.9
[3] = test system: Staphylococcus epidermidis; test: Antimicrobial activity against Staphylococcus epidermidis ATCC 35984 after 18 hrs by twofold serial broth dilution method; details: ATCC 35984, 18 h
[4] = test system: Bacillus anthracis; test: Antimicrobial activity against Bacillus anthracis 34F2 after 18 hrs by twofold serial broth dilution method; details: 34F2, 18 h
[5] = test system: Staphylococcus epidermidis; test: Antimicrobial activity against methicillin-resistant Staphylococcus epidermidis isolate 424/10 after 18 hrs by twofold serial broth dilution method; details: isolate 424/10, 18 h
[6] = test system: Staphylococcus aureus; test: Bactericidal activity against Staphylococcus aureus ATCC 25923 after 24 hrs; details: ATCC 25923, 24 h, read-out: MBC99.9
[7] = test system: Staphylococcus epidermidis; test: Antimicrobial activity against methicillin-resistant Staphylococcus epidermidis isolate 470/11 after 18 hrs by twofold serial broth dilution method; details: isolate 470/11, 18 h
[8] = test system: Staphylococcus epidermidis; test: Bactericidal activity against methicillin-resistant Staphylococcus epidermidis isolate 460/11 after 24 hrs; details: isolate 460/11, 24 h, read-out: MBC99.9
[9] = test system: Staphylococcus epidermidis; test: Antimicrobial activity against methicillin-resistant Staphylococcus epidermidis isolate 458/11 after 18 hrs by twofold serial broth dilution method; details: isolate 458/11, 18 h
[10] = test system: Staphylococcus epidermidis; test: Bactericidal activity against methicillin-resistant Staphylococcus epidermidis isolate 422/10 after 24 hrs; details: isolate 422/10, 24 h, read-out: MBC99.9
[11] = test system: Staphylococcus epidermidis; test: Bactericidal activity against methicillin-resistant Staphylococcus epidermidis isolate 469/11 after 24 hrs; details: isolate 469/11, 24 h, read-out: MBC99.9
[12] = test system: Staphylococcus aureus; test: Bactericidal activity against Staphylococcus aureus NCTC 4163 after 24 hrs; details: NCTC 4163, 24 h, read-out: MBC99.9
[13] = test system: Pseudomonas aeruginosa; test: Antimicrobial activity against Pseudomonas aeruginosa ATCC 15442 after 18 hrs by twofold serial broth dilution method; details: ATCC 15442, 18 h
[14] = test system: Staphylococcus epidermidis; test: Bactericidal activity against Staphylococcus epidermidis ATCC 35984 after 24 hrs; details: ATCC 35984, 24 h, read-out: MBC99.9
[15] = test system: Staphylococcus epidermidis; test: Antimicrobial activity against methicillin-resistant Staphylococcus epidermidis isolate 422/10 after 18 hrs by twofold serial broth dilution method; details: isolate 422/10, 18 h
[16] = test system: Escherichia coli; test: Antimicrobial activity against Escherichia coli ATCC 25922 after 18 hrs by twofold serial broth dilution method; details: ATCC 25922, 18 h
[17] = test system: Staphylococcus epidermidis; test: Antimicrobial activity against Staphylococcus epidermidis ATCC 12228 after 18 hrs by twofold serial broth dilution method; details: ATCC 12228, 18 h
[18] = test system: Staphylococcus aureus; test: Antimicrobial activity against Staphylococcus aureus NCTC 4163 after 18 hrs by twofold serial broth dilution method; details: NCTC 4163, 18 h
[19] = test system: Escherichia coli; test: Antimicrobial activity against Escherichia coli NCTC 8196 after 18 hrs by twofold serial broth dilution method; details: NCTC 8196, 18 h
[20] = test system: Staphylococcus aureus; test: Bactericidal activity against Staphylococcus aureus […] after 24 hrs; details: read-out: MBC99.9
[21] = test system: Staphylococcus epidermidis; test: Bactericidal activity against methicillin-resistant Staphylococcus epidermidis isolate 470/11 after 24 hrs; details: isolate 470/11, 24 h, read-out: MBC99.9
[22] = test system: Staphylococcus epidermidis; test: Antimicrobial activity against methicillin-resistant Staphylococcus epidermidis isolate 454/11 after 18 hrs by twofold serial broth dilution method; details: isolate 454/11, 18 h
[23] = test system: Staphylococcus epidermidis; test: Bactericidal activity against methicillin-resistant Staphylococcus epidermidis isolate 454/11 after 24 hrs; details: isolate 454/11, 24 h, read-out: MBC99.9
[24] = test system: Escherichia coli; test: Bactericidal activity against Escherichia coli ATCC 10538 after 24 hrs; details: ATCC 10538, 24 h, read-out: MBC99.9
[25] = test system: Staphylococcus epidermidis; test: Antimicrobial activity against methicillin-resistant Staphylococcus epidermidis isolate 409/10 after 18 hrs by twofold serial broth dilution method; details: isolate 409/10, 18 h
[26] = test system: Staphylococcus aureus; test: Antimicrobial activity against Staphylococcus aureus ATCC 6538 after 18 hrs by twofold serial broth dilution method; details: ATCC 6538, 18 h
[27] = test system: Pseudomonas aeruginosa; test: Bactericidal activity against Pseudomonas aeruginosa ATCC 27853 after 24 hrs; details: ATCC 27853, 24 h, read-out: MBC99.9
[28] = test system: Pseudomonas aeruginosa; test: Antimicrobial activity against Pseudomonas aeruginosa ATCC 27853 after 18 hrs by twofold serial broth dilution method; details: ATCC 27853, 18 h
[29] = test system: Staphylococcus epidermidis; test: Bactericidal activity against methicillin-resistant Staphylococcus epidermidis isolate 457/11 after 24 hrs; details: isolate 457/11, 24 h, read-out: MBC99.9
[30] = test system: Pseudomonas aeruginosa; test: Antimicrobial activity against Pseudomonas aeruginosa NCTC 6749 after 18 hrs by twofold serial broth dilution method; details: NCTC 6749, 18 h
[31] = test system: Staphylococcus epidermidis; test: Antimicrobial activity against methicillin-resistant Staphylococcus epidermidis isolate 404/10 after 18 hrs by twofold serial broth dilution method; details: isolate 404/10, 18 h
[32] = test system: Pseudomonas aeruginosa; test: Bactericidal activity against Pseudomonas aeruginosa ATCC 15442 after 24 hrs; details: ATCC 15442, 24 h, read-out: MBC99.9
[33] = test system: Staphylococcus aureus; test: Antimicrobial activity against Staphylococcus aureus ATCC 25923 after 18 hrs by twofold serial broth dilution method; details: ATCC 25923, 18 h
[34] = test system: Staphylococcus epidermidis; test: Antimicrobial activity against methicillin-resistant Staphylococcus epidermidis isolate 407/10 after 18 hrs by twofold serial broth dilution method; details: isolate 407/10, 18 h
[35] = test system: Staphylococcus epidermidis; test: Bactericidal activity against methicillin-resistant Staphylococcus epidermidis isolate 403/10 after 24 hrs; details: isolate 403/10, 24 h, read-out: MBC99.9
[36] = test system: Staphylococcus epidermidis; test: Bactericidal activity against methicillin-resistant Staphylococcus epidermidis isolate 461/11 after 24 hrs; details: isolate 461/11, 24 h, read-out: MBC99.9
[37] = test system: Staphylococcus aureus; test: Antimicrobial activity against Staphylococcus aureus […] after 18 hrs by twofold serial broth dilution method
[38] = test system: Staphylococcus epidermidis; test: Antimicrobial activity against methicillin-resistant Staphylococcus epidermidis isolate 469/11 after 18 hrs by twofold serial broth dilution method; details: isolate 469/11, 18 h
[39] = test system: Staphylococcus epidermidis; test: Antimicrobial activity against methicillin-resistant Staphylococcus epidermidis isolate 455/11 after 18 hrs by twofold serial broth dilution method; details: isolate 455/11, 18 h
[40] = test system: Staphylococcus epidermidis; test: Antimicrobial activity against methicillin-resistant Staphylococcus epidermidis isolate 457/11 after 18 hrs by twofold serial broth dilution method; details: isolate 457/11, 18 h
[41] = test system: Escherichia coli; test: Bactericidal activity against Escherichia coli ATCC 25922 after 24 hrs; details: ATCC 25922, 24 h, read-out: MBC99.9
[42] = test system: Escherichia coli; test: Bactericidal activity against Escherichia coli NCTC 8196 after 24 hrs; details: NCTC 8196, 24 h, read-out: MBC99.9

`CC[C@@H](C(=O)[C@@H](C)[C@@H](O)[C@H](C)[C@@H]1O[C@@H]([C@@H](CC)C(=O)N2CCOCC2)CC[C@@H]1C)[C@H]1O[C@]2(C=C[C@@H](O)[C@]3(CC[C@@](C)([C@H]4CC[C@](O)(CC)[C@H](C)O4)O3)O2)[C@H](C)C[C@@H]1C` was tested, and the MBC [1] was > 256 µg/mL, the MBC [2] was > 256 µg/mL and the MIC [3] was 128 µg/mL (≈ 156 µM). For the same molecule, the MIC [4] was 128 µg/mL (≈ 156 µM), the MIC [5] was 256 µg/mL (≈ 312 µM) and the MBC [6] was > 256 µg/mL. For the same molecule, the MIC [7] was 256 µg/mL (≈ 312 µM), the MBC [8] was > 256 µg/mL and the MIC [9] was 256 µg/mL (≈ 312 µM). The MBC [10] was > 256 µg/mL, the MBC [11] was > 256 µg/mL and the MBC [12] was > 256 µg/mL. The MIC [13] was 256 µg/mL (≈ 312 µM), the MBC [14] was > 256 µg/mL and the MIC [15] was 256 µg/mL (≈ 312 µM). The MIC [16] was 256 µg/mL (≈ 312 µM), the MIC [17] was 128 µg/mL (≈ 156 µM) and the MIC [18] was 256 µg/mL (≈ 312 µM). For the same molecule, the MIC [19] was 256 µg/mL (≈ 312 µM), the MBC [20] was > 256 µg/mL and the MBC [21] was > 256 µg/mL. The MIC [22] was 128 µg/mL (≈ 156 µM), the MBC [23] was > 256 µg/mL and the MBC [24] was > 256 µg/mL. For the same molecule, the MIC [25] was 256 µg/mL (≈ 312 µM), the MIC [26] was 128 µg/mL (≈ 156 µM) and the MBC [27] was > 256 µg/mL. For the same molecule, the MIC [28] was 256 µg/mL (≈ 312 µM), the MBC [29] was > 256 µg/mL and the MIC [30] was 128 µg/mL (≈ 156 µM). For the same molecule, the MIC [31] was 256 µg/mL (≈ 312 µM), the MBC [32] was > 256 µg/mL and the MIC [33] was 128 µg/mL (≈ 156 µM). The MIC [34] was > 256 µg/mL, the MBC [35] was > 256 µg/mL and the MBC [36] was > 256 µg/mL. For the same molecule, the MIC [37] was 256 µg/mL (≈ 312 µM), the MIC [38] was > 256 µg/mL and the MIC [39] was 256 µg/mL (≈ 312 µM). For the same molecule, the MIC [40] was 256 µg/mL (≈ 312 µM), the MBC [41] was > 256 µg/mL and the MBC [42] was > 256 µg/mL.
